Assay [1] deals with PGE2 Inhibited TNFα in human whole blood. Kind of assay: Human whole blood assay (Reversal of PGE2 Inhibited TNFα). The class given is cell-based. To be noted: for times more potent than reference EP4 antagonists (whole blood assay): PGE2 mediated TNF-α. The method, then: Blood was collected from normal volunteer donors into sodium heparin vacutainer tubes. Donors had not taken glucocorticoids within 2 weeks of the donation. […] The plates were incubated for 20–24 h at 37 °C, 5% CO2, in a humidified atmosphere. […] Plasma was removed from the cell layer and was transferred to v‐bottom polypropylene plates. […] The plates were read at A450‐A650 on a plate reader (Molecular Devices Versamax) using SOFTmaxPRO (v. 4.3.I) software. IC50s were calculated using Graphpad Prism (v. 4) nonlinear regression, sigmoidal dose response curve fitting. Results are expressed as the geometric mean ± SD.

Another assay has as its target Human EP4 (Homo sapiens, UniProt P35408). Kind of assay: [3H]-PGE2 receptor binding assay, EP4 membranes. More on the design: expressed in transfected cells; membrane preparation. To be noted: HEK293 membranes, geometric mean ± SEM, read-out: hEP1-4 receptor binding EP4 Ki. The method, then: (§1) Receptor binding assays were done using membrane preparations of HEK 293 cells transfected with various prostanoid receptors using previously published procedure (Nakao et al. 2007). EP1 and EP4 membranes were prepared from recombinant HEK293 cells stably expressing human EPl receptor (GenBank Accession # AY275470, Clone ID PER0100000, UMR cDNA Resource Center, Rolla, MO) or human EP4 receptor. EP2 and EP3 membranes were prepared from HEK293 cells transiently transfected with human EP2 receptor (GenBank Accession # AY275471, Clone ID PER0200000, UMR cDNA Resource Center, Rolla, MO) or human EP3 receptor (GenBank Accession # AY429108, Clone ID PER3VI0000, UMR cDNA Resource Center, Rolla, MO) plasmids. Frozen cell pellets were homogenized in homogenization buffer (10 mmol/L Tris‐HCl, pH7.4, 250 mmol/L sucrose, 1 mmol/L EDTA, 0.3 mmol/L indomethacin and protease inhibitor cocktail with EDTA (Roche Molecular Biochemicals, catalog # 1691498)) using a Teflon/glass homogenizer. After a low speed centrifugation (200g for 15 min at 4°C) the supernatant was subjected to high speed centrifugation (30,000g for 60 min at 4°C). Membrane protein preparation was aliquoted and quick frozen on dry ice prior to storage at −80°C. […] Compounds were tested in a 96‐well format using a three‐fold dilution series to generate 10‐point curves. […] The binding reaction was performed in 200 μL MES buffer (10 mmol/L MES, pH 6.0, 10 mmol/L MgCl2, and l mmol/L EDTA) using polystyrene 96‐well plates. […] The membranes were harvested by filtration (TomTek harvester), washed four times with cold buffer (10 mmol/L MES, pH 6.0, 10 mmol/L MgCl2), dried in a 60°C oven, and the radioactivity was quantified as counts per min (CPM) using a TopCount detector. […] Data were analyzed using a 4‐parameter nonlinear logistic equation. K i Conversion from IC50 Values (K i = […] where [L] is the ligand concentration). Results are expressed as the geometric mean ± standard deviation or geometric mean ± standard error as noted.

The target of a further assay is T1, Rat EP4 (Rattus norvegicus, UniProt P43114).
T1 construct: expressed in transfected cells
Kind of assay: EP4 cAMP antagonist assay (HTRF), rat EP4. The class given is cell-based. To be noted: read-out: cAMP Antagonism Rat EP4 IC50. The method, then:
Human EP4 (GenBank Accession # AY429109, Clone ID PER0400000, UMR cDNA Resource Center, Rolla, MO) was stably expressed in HEK293 cells. Rat EP4 cDNA (GenBank Accession# NM_03276) was cloned into pcDNA 3.1 vector and stably transfected into HEK293 cells. The cell lines were maintained in DMEM (invitrogen) supplemented with 10% fetal bovine serum (FBS), 1 mmol/L sodium pyruvate, 10 mmol/L HEPES, 500 μg/mL geneticin and 2 mmol/L L‐glutamine. Confluent cultures were grown at 37°C in an atmosphere containing 5% CO2. Cells were harvested using 0.25% Trypsin‐ EDTA, suspended in freeze media at a density of 10^7cel1s/mL, and aliquots were stored in liquid nitrogen. Immediately prior to the assay, cells were thawed with DMEM and suspended in cAMP assay buffer (HBSS with 0.1% BSA, 20 mmol/L HEPES and 200 μmol/L IBMX).
CJ‐023,423 served as the positive control. To measure the cAMP levels, cAMP‐d2 conjugate and anti cAMP‐cryptate conjugate in lysis buffer were incubated with the treated cells at room temperature for 1 h. The HTRF signal was detected using an EnVision plate reader (Perkin‐Elmer, Inc., Waltham, MA, USA.) to calculate the ratio of fluorescence at 665 to 620 nm. The raw data were converted to cAMP (nmol/L) using a cAMP standard curve generated for each experiment. Data were analyzed using a 4‐parameter nonlinear logistic equation. Results are expressed as the geometric mean ± standard deviation or geometric mean ± standard error as noted.

Another assay addresses T2, human EP2 receptor (Homo sapiens, UniProt P43116).
T2 construct: host or cells: HEK293, transient; membrane preparation
Kind of assay: [3H]-PGE2 receptor binding assay, EP2 membranes. How it is done:
as §1

Another assay addresses T3, human EP3 receptor (Homo sapiens, UniProt P43115).
T3 sequence (P43115 1-359 limits assumed): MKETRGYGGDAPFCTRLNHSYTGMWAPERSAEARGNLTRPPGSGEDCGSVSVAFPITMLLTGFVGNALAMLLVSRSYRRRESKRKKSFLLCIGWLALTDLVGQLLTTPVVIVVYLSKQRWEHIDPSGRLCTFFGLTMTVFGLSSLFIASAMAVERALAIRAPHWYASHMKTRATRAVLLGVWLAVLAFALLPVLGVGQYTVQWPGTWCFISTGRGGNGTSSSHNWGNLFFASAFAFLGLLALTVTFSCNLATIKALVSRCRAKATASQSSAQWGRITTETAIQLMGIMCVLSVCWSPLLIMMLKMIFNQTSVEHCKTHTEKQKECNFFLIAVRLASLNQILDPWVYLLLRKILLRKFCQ
Description: [3H]-PGE2 receptor binding assay, EP3 membranes. To be noted: HEK293 membranes, geometric mean ± SEM, read-out: hEP1-4 receptor binding EP3 Ki. How it is done:
as §1

[2] abbreviates: HEK293 membranes, [3H]-PGE2, geometric mean ± SEM, read-out: hEP1-4 receptor binding EP2 Ki.

The text below walks through data of paper PMC5464344, “Analgesic and anti‐inflammatory properties of novel, selective, and potent EP4 receptor antagonists” (Pharmacology Research & Perspectives, 2017).

SMILES strings stand for the structures. Where two headings read alike, the source gives them in different places.

T1 sequence (P43114 whole entry): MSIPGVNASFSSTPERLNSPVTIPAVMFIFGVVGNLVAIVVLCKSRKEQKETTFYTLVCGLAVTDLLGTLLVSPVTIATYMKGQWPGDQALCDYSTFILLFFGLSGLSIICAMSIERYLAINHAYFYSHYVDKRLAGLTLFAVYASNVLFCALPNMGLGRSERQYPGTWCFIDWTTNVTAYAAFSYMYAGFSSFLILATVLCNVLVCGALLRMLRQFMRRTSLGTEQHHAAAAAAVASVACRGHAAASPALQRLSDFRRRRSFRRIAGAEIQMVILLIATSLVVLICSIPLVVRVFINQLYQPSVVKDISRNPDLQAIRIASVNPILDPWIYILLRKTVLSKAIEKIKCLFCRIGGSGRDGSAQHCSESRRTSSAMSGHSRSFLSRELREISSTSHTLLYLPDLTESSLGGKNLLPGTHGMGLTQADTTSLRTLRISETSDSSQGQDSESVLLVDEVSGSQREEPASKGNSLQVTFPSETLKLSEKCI
Human EP4, sequence (P35408 whole entry): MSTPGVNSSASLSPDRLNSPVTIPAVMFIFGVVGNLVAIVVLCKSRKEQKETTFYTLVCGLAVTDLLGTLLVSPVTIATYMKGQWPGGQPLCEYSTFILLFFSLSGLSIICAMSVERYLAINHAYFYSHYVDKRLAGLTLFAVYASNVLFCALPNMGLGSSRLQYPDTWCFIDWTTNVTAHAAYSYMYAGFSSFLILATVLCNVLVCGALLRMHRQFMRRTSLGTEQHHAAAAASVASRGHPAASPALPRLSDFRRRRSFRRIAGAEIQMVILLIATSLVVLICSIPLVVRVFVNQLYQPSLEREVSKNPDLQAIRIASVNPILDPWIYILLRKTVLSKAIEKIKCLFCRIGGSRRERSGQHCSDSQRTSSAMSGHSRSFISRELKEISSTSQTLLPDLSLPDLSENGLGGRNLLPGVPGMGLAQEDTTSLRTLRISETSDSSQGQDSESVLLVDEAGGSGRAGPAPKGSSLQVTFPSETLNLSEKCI
T2 sequence (P43116 whole entry): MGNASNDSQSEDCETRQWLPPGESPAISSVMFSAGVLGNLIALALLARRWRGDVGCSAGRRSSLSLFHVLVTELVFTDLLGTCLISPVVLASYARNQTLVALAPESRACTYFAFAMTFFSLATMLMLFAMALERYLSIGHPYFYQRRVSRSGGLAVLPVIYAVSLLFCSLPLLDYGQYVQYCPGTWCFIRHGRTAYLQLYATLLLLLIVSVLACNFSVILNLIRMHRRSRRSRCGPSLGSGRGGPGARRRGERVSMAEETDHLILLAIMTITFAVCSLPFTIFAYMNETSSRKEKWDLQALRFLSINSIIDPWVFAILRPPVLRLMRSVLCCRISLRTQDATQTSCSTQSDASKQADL

Take `C[C@H](NC(=O)c1cc(Cl)ccc1Oc1ccc(F)cc1)c1ccc(C(=O)O)cc1` [CJ‐042,794, reference compound]: in assay [1] (human whole blood, various concentrations (Fig. 5A)), the “reversal of PGE2 suppression of LPS stimulated TNF‐α production” value is recorded as “reversed”. The figures for the Ki on Human EP4, on human EP2 receptor (setting [2]) and on human EP3 receptor were 12.6 ± 7.36 nM, 931 ± 457 nM and more than 15500 nM, respectively. Also, the IC50 on Rat EP4 worked out at 20.6 ± 1.8 nM.
In the case of `Cc1ccc(N2CCC(O)CC2)nc1C(=O)Nc1c(C)cc(C(=O)O)cc1C` [Compound 1], the “times more potent than reference EP4 antagonists (whole blood assay)” value in assay [1] (human whole blood) was 5–10 times. Moreover, the IC50 in assay [1] (read-out: Human whole blood (Reversal of PGE2 Inhibited TNFα) IC50, 10 μg/ml LPS + 10 nmol/L PGE2, 20–24 h, geometric mean ± SD) worked out at 123 ± 80 nM; at Rat EP4, 12.3 nM. Besides, at Human EP4, the Ki amounted to 58 ± 12 nM.
Regarding `C[C@H](NC(=O)[C@H]1CCCCN1CCOc1ccccc1)c1ccc(C(=O)O)cc1` [Compound 2], the “times more potent than reference EP4 antagonists (whole blood assay)” value in assay [1] (human whole blood) is 5–10 times. Moreover, the IC50 on Rat EP4 turned out to be 15.4 nM. Further, the Ki at human EP2 receptor (setting [2]) was 1210 ± 509 nM; at human EP2 receptor (read-out: Ki for EP2 receptor), 1200 nM; at human EP3 receptor, more than 14000 nM.
Take `Cc1ccc(-c2cccc(CO)c2)nc1C(=O)Nc1c(C)ccc(C(=O)O)c1C` [Compound 3]: the Ki was 2.07 ± 1.31 nM on Human EP4, more than 18900 nM on human EP2 receptor (setting [2]) and more than 14000 nM on human EP3 receptor. In addition, the IC50 on Rat EP4 was 1 nM.

Broadly, the Ki is the equilibrium dissociation constant of an inhibitor or competing ligand from its target. What is called IC50 is the concentration at which inhibition is half-maximal.
